Results published in patent publication US9738613B2, “Substituted 1,2,3-triazoles as antitumor agents” (National Central University, priority 2015, dated 2017).
pIC50: −log10 of the molar value. Counter-ions that a name gives are not always drawn. Like-named read-outs stand apart in the source and are kept apart here.

Assays:
PC-3 cells = assay: Sulforhodamine B (SRB) growth inhibition assay, PC-3 cells; type: cell-based, Human
Method: (§1) Human hormone-refractory prostate cancer cell lines PC-3 and DU-145 were from American Type Culture Collection (Rockville, MD). Cells were cultured in RPMI 1640 medium with 10% FBS (v/v) and penicillin (100 U/ml)/streptomycin (100 μg/ml). Cultures were maintained in a humidified incubator at 37° C. in 5% CO2/95% air.
(§2) Cells were seeded in 96-well plates in medium with 5% FBS. After 24 hours, cells were fixed with 10% TCA to represent cell population at the time of drug addition (T0). After additional incubation of DMSO or the compound for 48 hours (PC-3 cells) or 72 hours (DU145 cells), cells were fixed with 10% TCA and SRB at 0.4% (w/v) in 1% acetic acid was added to stain cells. Unbound SRB was washed out by 1% acetic acid and SRB bound cells were solubilized with 10 mM Trizma base. The absorbance was read at a wavelength of 515 nm. Using the following absorbance measurements, such as time zero (T0), control growth (C), and cell growth in the presence of the compound (Tx), the percentage growth was calculated at each of the compound concentrations levels. Percentage growth inhibition was calculated as: [1−(Tx−T0)/(C−T0)]×100%. Growth inhibition of 50% (IC50) is determined at the compound concentration which results in 50% reduction of total protein increase in control cells during the compound incubation. Data are expressed as mean±SEM of three to five determinations.

DU-145 cells = assay: Sulforhodamine B (SRB) growth inhibition assay, DU-145 cells; type: cell-based, Human
Method: as §1, §2

[1] = human hormone-refractory prostate cancer PC-3 cells, 48 hours incubation, read-out: PC-3 cells IC50
[2] = human hormone-refractory prostate cancer DU-145 cells, 72 hours incubation, read-out: DU-145 cells IC50
[3] = Homo sapiens, PC-3 cells, 48 hours, bound stated, read-out: IC50 in PC-3 cells (text summary of Table 1)
[4] = Homo sapiens, DU-145 cells, 72 hours, bound stated, read-out: IC50 in DU-145 cells (text summary of Table 1)

Row | Compound | pIC50 (PC-3 cells; [1]) | pIC50 (DU-145 cells; [2]) | pIC50 (PC-3 cells; [3]) | pIC50 (DU-145 cells; [4])
1 | 2-Amino-2-(4-(1-tetradecyl-1H-1,2,3-triazol-4-yl)butyl)propane-1,3-diol hydrochloride [Compound 10] | 5.05 | 5.21 |  | 
2 | 2-Amino-2-((1-pentadecyl-1H-1,2,3-triazol-4-yOmethyl)propane-1,3-diol hydrochloride [Compound 5] | 5.46 |  |  | 
3 | CCCCCCCCCCCCCCCCCCn1cc(CCC(N)(CO)CO)nn1 [Compound 4, 2-Amino-2-(2-(1-octadecyl-1H-1,2,3-triazol-4-yl)ethyl)propane-1,3-diol hydrochloride] | 5.44 | 5.62 | > 5.30 | > 5.30
4 | CCCCCCCCCCCCCCCCCCn1cc(CC(N)(C(=O)OCC)C(=O)OCC)nn1 [Compound 7, Diethyl 2-amino-2-((1-octadecyl-1H-1,2,3-triazol-4-yl)methyl)malonate hydrochloride] | 5.10 | < 5.00 | > 5.00 | 
5 | CCCCCCCCCCCCCCCCCCCCn1cc(CC(CO)(COC)NC)nn1 (stereo not shown) [Compound 12, 3-(1-Icosyl-1H-1,2,3-triazol-4-yl)-2-(methoxymethyl)-2-(methylamino)propan-1-ol] | 5.52 | 5.33 | > 5.30 | > 5.30

Further lines, results first:

Row | pIC50 (PC-3 cells; [1]) | pIC50 (DU-145 cells; [2]) | pIC50 (PC-3 cells; [3]) | pIC50 (DU-145 cells; [4]) | Compound
6 | 5.31 | 5.33 | > 5.30 | > 5.30 | CCCCCCCCCCCCCCn1cc(CC(N)(CO)CO)nn1 [Compound 1, 2-Amino-2-((1-tetradecyl-1H-1,2 ,3-triazol-4-yl)methyl)propane-1,3-diol hydrochloride]
7 | 5.48 | 5.28 | > 5.30 | > 5.00 | CCCCCCCCCCCCCCCCn1cc(CC(N)(CO)CO)nn1 [Compound 2, 2-Amino-2-((1-hexadecyl-1H-1,2,3-triazol-4-yl)methyl)propane-1,3-diol hydrochloride]
8 | 5.35 | 5.24 | > 5.30 | > 5.00 | CCCCCCCCCCCCCCCCCCn1cc(CC(N)(CO)CO)nn1 [Compound 3, 2-Amino-2-((1-octadecyl-1H-1,2,3-triazol-4-yl)methyl)propane-1,3-diol hydrochloride]
9 | 5.21 |  | > 5.00 |  | CCCCCCCCCCCCCCCCn1cc(CCC(N)(CO)CO)nn1 [Compound 6, 2-Amino-2-(2-(1-hexadecyl-1H-1,2,3-triazol-4-yl)ethyl)propane-1,3-diol hydrochloride]
10 | 5.42 | 5.21 | > 5.30 | > 5.00 | CCCCCCCCCCCCCCCCCCCCn1cc(CC(N)(CO)CO)nn1 [Compound 8, 2-Amino-2-((1-icosyl-1H-1,2,3-triazol-4-yl)methyl)propane-1,3-diol hydrochloride]
11 | 5.38 | 5.27 | > 5.30 | > 5.00 | CCCCCCCCCCCCCCn1cc(CCCC(N)(CO)CO)nn1 [Compound 9, 2-Amino-2-(3-(1-tetradecyl-1H-1,2,3-triazol-4-yl)propyl)propane-1,3-diol hydrochloride]
12 | 5.27 | 5.38 | > 5.00 | > 5.30 | CCCCCCCCCCCCCn1cc(CC(N)(CO)CO)nn1 [Compound 11, 2-Amino-2-((1-tridecyl-1H-1,2,3-triazol-4-yl)methyl)propane-1,3-diol hydrochloride]
